Experimental data as given in PubChem BioAssay (NCI).
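Dose response: 5 concentrations. Exposure: 48 h. Format: 96-well plates. Endpoint: linear interpolation; highest concentration if not reached. Here, GI50 denotes the concentration required for 50% inhibition of growth. At the TGI there is no net growth.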

Experiments:
Assay in all cases: inhibition of tumour cell growth, NCI panel, 48 h
[1] = system: 786-0 renal
[2] = system: A549 NSCLC
[3] = system: K-562 leukemia
[4] = system: MALME-3M melanoma
[5] = system: NCI-H522 lung
[6] = system: SK-MEL-2 melanoma
[7] = system: SK-MEL-5 melanoma
[8] = system: SNB-19 CNS
[9] = system: TK-10 renal
[10] = system: SNB-75 CNS

Row | Compound | TGI [1] [µM] | TGI [2] [µM] | TGI [3] [µM] | TGI [4] [µM] | TGI [5] [µM] | TGI [6] [µM] | TGI [7] [µM] | TGI [8] [µM] | TGI [9] [µM] | TGI [10] [µM] | GI50 [1] [µM] | GI50 [2] [µM] | GI50 [3] [µM] | GI50 [4] [µM] | GI50 [5] [µM] | GI50 [6] [µM] | GI50 [8] [µM] | GI50 [10] [µM] | GI50 [9] [µM] | GI50 [7] [µM]
1 | CC1CC2(CC[C@@H]1O)OCCO2 (some centres not stated) | > 100 | > 100 | > 100 | > 100 | > 100 | > 100 | > 100 | > 100 | > 100 | – | – | – | – | – | – | – | – | – | – | –
2 | CCOC(=O)N1C2C=C(C)C(C3C(C)C(=O)N31)N(C(=O)c1ccccc1)O2 (configuration not stated) | > 100 | > 100 | > 100 | > 100 | – | > 100 | > 100 | > 100 | > 100 | > 100 | – | – | – | – | – | – | – | – | – | –
3 | C=C(C)[C@@H]1CC[C@@]2(C)[C@H]1[C@H]1CCC3[C@@]4(C)CC[C@H](O)C(C)(C)[C@@H]4CC[C@@]3(C)[C@]1(C)C[C@@H]2O (some centres not stated) | > 100 | > 100 | 47.7 | > 100 | > 100 | – | 57.2 | > 100 | > 100 | > 100 | – | – | – | – | – | – | – | – | – | –
4 | Cc1cccc(C)c1NC(=O)CCCC(=O)C1CCC/C1=N\NC(=O)C(=O)NN (configuration not stated) | > 100 | > 100 | > 100 | > 100 | – | > 100 | > 100 | > 100 | > 100 | > 100 | – | – | – | – | – | – | – | – | – | –
5 | Cn1cc(-c2ccc3c(c2)CCN3C(=O)Cc2cccc(C(F)(F)F)c2)c2c(N)ncnc21 | 17.7 | 25.5 | 20.6 | 13.3 | 29 | 28.6 | – | 22.9 | 39 | 19 | 2.26 | 7.61 | 2.22 | 2.03 | 10.1 | 4.62 | 7.06 | 2.76 | 6.09 | –
6 | CC(=O)OC1C2(CC3N4C(=O)C5(CO)SSC4(CC31O)C(=O)N5C)OC(C)C(C)(C)C2=O (configuration not stated) | 0.528 | 0.231 | 1.91 | – | 3.17 | 1.79 | 0.0947 | 0.0666 | 3.27 | – | 0.234 | 0.0592 | < 0.0288 | 0.154 | 1.33 | 0.339 | 0.0184 | – | 1.73 | 0.0389
7 | CCC1CN2CCc3cc(OC)c(OC)cc3C2CC1CC1c2cc(OC)c(OC)cc2CCN1C(=O)CNC(=O)OC(C)(C)C (configuration not stated) | 21.2 | 62.6 | 14.9 | 39.6 | – | 33.1 | 21 | 53.5 | 85.5 | 73.1 | – | – | – | – | – | – | – | – | – | –
8 | Clc1ccc2nc(Oc3ccccc3)cnc2c1 | > 100 | > 100 | > 100 | > 100 | > 100 | – | > 100 | > 100 | > 100 | > 100 | > 100 | > 100 | > 100 | > 100 | > 100 | – | > 100 | 59 | > 100 | > 100
9 | O=C(O)c1c[nH]cc1C(=O)O | > 100 | > 100 | > 100 | > 100 | > 100 | – | > 100 | > 100 | > 100 | > 100 | – | – | – | – | – | – | – | – | – | –
